{"source": "paper PMC11502334", "about": "“Fungal glyceraldehyde 3-phosphate dehydrogenase GpdC maintains glycolytic mechanism against reactive nitrogen stress-induced damage” (Frontiers in Microbiology, 2024)", "key": {"rGpdA (GpdA)": {"target": "T1, rGpdA (GpdA) (Aspergillus nidulans, UniProt P20445)", "T1 construct": "recombinant from cDNA, vector pET-21a, expressed in E. coli BL21 (DE3), HisTrap purified", "T1 sequence (P20445 whole entry)": "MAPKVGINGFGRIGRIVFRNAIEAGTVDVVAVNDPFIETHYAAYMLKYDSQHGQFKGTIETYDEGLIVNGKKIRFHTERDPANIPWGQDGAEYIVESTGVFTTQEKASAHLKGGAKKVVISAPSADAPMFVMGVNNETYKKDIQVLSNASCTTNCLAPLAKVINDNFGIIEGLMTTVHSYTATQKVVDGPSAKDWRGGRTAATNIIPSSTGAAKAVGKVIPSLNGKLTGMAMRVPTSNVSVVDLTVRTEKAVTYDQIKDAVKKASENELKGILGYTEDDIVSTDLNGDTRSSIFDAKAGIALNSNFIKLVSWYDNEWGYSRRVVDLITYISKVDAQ", "test": "residual GAPDH activity after preincubation; biotin-switch assay", "type": "biochemical", "conditions": "covalent (S-nitrosation of thiols); 0–1 mM, 1 h, 25°C, pH 7.5; activity measured with NAD+"}, "rGpdC (GpdC)": {"target": "T2, rGpdC (GpdC) (Aspergillus nidulans, UniProt Q5BA47)", "T2 construct": "gene ANIA_02583; recombinant from synthetic E. coli codon-optimized gene, vector pET-21a (Nde I/Hind III), expressed in E. coli BL21 (DE3), HisTrap purified", "T2 sequence (Q5BA47 1-354)": "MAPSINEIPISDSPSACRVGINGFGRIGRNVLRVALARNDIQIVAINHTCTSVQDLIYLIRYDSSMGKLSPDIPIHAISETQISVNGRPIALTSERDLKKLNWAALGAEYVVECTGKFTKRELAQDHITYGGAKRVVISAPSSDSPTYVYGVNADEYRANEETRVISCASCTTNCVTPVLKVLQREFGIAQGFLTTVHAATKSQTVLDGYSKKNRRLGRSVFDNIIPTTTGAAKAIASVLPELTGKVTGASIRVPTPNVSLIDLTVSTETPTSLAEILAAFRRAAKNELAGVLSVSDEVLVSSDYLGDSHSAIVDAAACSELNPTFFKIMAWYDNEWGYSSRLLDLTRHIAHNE", "test": "residual GAPDH activity after preincubation; biotin-switch assay", "type": "biochemical", "conditions": "covalent (S-nitrosation of thiols); 0–1 mM, 1 h, 25°C, pH 7.5; activity measured with NADP+"}}, "data": [{"smiles": "N[C@@H](CCC(=O)N[C@@H](CSN=O)C(=O)NCC(=O)O)C(=O)O", "note": "[GSNO]", "values": [{"measurement": "residual GAPDH activity after preincubation; biotin-switch assay", "setting": "rGpdA (GpdA)", "result": "GSNO modified the thiol residues of rGpdA and rGpdC to S-nitrosothiol and impaired enzyme activity"}, {"measurement": "residual GAPDH activity after preincubation; biotin-switch assay", "setting": "rGpdC (GpdC)", "result": "GSNO modified the thiol residues of rGpdA and rGpdC to S-nitrosothiol and impaired enzyme activity"}]}]}
